Consider one molecule from patent publication US20220265713A1, “SPHINGOLIPIDS FOR GENERATING REGULATORY CD4+ T CELLS” (Deutsches Krebsforschungszentrum, priority 2019, published 2022).

The test system of one assay is EAE mice. The experiment in a line: EAE mouse model for multiple sclerosis (MOG35-55 immunization), clinical scoring. Format: in vivo. The following applies: C57BL/6 mice, sphinganine 1000 μg/kg body weight intraperitoneally, one injection every two days, day 1 to day 15, FIG. 5. On the procedure: EAE induction and monitoring. Each mouse was subcutaneously immunized with 200 μg MOG35-55 peptide emulsified in Freund's Complete Adjuvant. Pertussis toxin (400 ng per mouse) was injected intraperitoneally. Where indicated, mice were intraperitoneally injected with sphinganine (every other day from the day of immunization to the end of the experiments). EAE symptoms were scored every day using the following scoring standard: 0, no sign; 1, limp tail; 2, paraparesis (incomplete paralysis of 1 or 2 hind limbs); 3, paraplegia (complete paralysis of 2 hind limbs); 4, paraplegia with forelimb weakness or paralysis; 5, moribund state or death. For the mouse welfare reason, we sacrificed the mice if the score reached 3. […] C57BL/6 mice were subcutaneously immunized with 200 μg MOG35-55 peptide emulsified in Freund's Complete Adjuvant to induce EAE development. Pertussis toxin (400 ng per mouse) was injected intraperitoneally. Mice were intraperitoneally injected with sphinganine (1000 μg/kg body weight, one injection every two days, from day 1 to day 15). EAE symptoms were scored every day.

Assay [1] deals with naïve CD4+ T cells. In words: Treg cell in vitro differentiation of naïve CD4+ T cells (flow cytometry of Foxp3). The following applies: sphinganine 5 μM, three days; for Foxp3 protein expression: anti-CD3, anti-CD28, TGFβ 5 ng/ml, IL-2 10 ng/ml, vs vehicle DMSO, FIG. 4A/4C. It is filed as cell-based, mouse. Here is the method: (§1) FIG. 4. Sphinganine promoted the Treg cell in vitro generation and suppressed the inflammatory Th17 cell formation. The YFP-negative CD4^+non-Treg naïve T cells were FACS-sorted (1 ×10^5 cells in 250 μl complete medium) from the Foxp3Cre-YFP mice. The naive T cells were activated with the anti-CD3 and anti-CD28 for three days, in the presence or absence of cytokine TGFβ (5 ng/ml) and IL-2 (10 ng/ml) for Treg cells and TGFβ (5 ng/ml), IL-6 (20 ng/ml) and anti-IFNy (10 μg/ml) for Th17 cells. A: flow cytometry analysis of Foxp3 protein expression after induction of Treg cell formation with sphinganine (5 μM) in the presence of cytokine TGFβ (5 ng/ml) or vehicle control DMSO (no TGFβ). B: Flow cytometry analysis of IL-17 protein expression after induction of Th17 cell formation with TGFβ (5 ng/ml), IL-6 (20 ng/ml) and anti-IFNy (10 μg/ml) in the presence or absence of sphinganine (5 μM). C: Flow cytometry analysis of Foxp3 protein expression after induction of Treg cell formation in the presence of TGFβ (5 ng/ml) and L- serine (5 μM), 3-KDS (5 μM), shinganine (5 μM), dihydroceramide (50 nM), ceramide (50 nM), sphingosine (1 μM), sphingosine-1-phosphate (1 μM), shinganine-1-phosphate (1 μM), or vehicle control DMSO (TGFβ only). D: Structures of sphingolipids, as indicated, and sphingolipid biosynthetic pathway are depicted. The numbers in each FACS plot show the percentages of the indicated cell population within the total population of cells shown in the FACS plot.
Mouse primary T cell culture. Complete medium was used for cell culture and was prepared by supplementing RPMI 1640 plain medium with 10% fetal calf serum, penicillin/streptomycin antibiotics and non-essential amino acids. For Treg and Th17 cell in vitro differentiation, naïve splenic T cells were purified from the Sptic2^+/+Foxp3Cre-YFP wild type mice using the flow cytometry sorter. […]
(§2) Flow Cytometry. […] Samples were run on the LSR II and analyzed using the Flowjo software (FlowJo, LLC, BD). […]
On the technique in general: In flow cytometry, cells or beads pass a laser one at a time.

For assay [2], the system named is naïve CD4+ T cells. The experiment in a line: Th17 cell in vitro differentiation of naïve CD4+ T cells (flow cytometry of IL-17). The following applies: sphinganine 5 μM, three days. It is filed as cell-based, mouse. On the procedure:
as §1, with “D: Structures of sphingolipids, as indicated, and sphingolipid biosynthetic pathway are depicted. The numbers in each FACS plot show the percentages of the indicated cell population within the total population of cells shown in the FACS plot.” left out
as §2

Each structure is given as a SMILES string.

With `CCCCCCCCCCCCCCC[C@@H](O)[C@@H](N)CO` [sphinganine], the “EAE clinical scores / EAE development” value with EAE mice is “reduced”; with EAE mice (listed as Sphinganine) it was “ameliorated EAE development”. Also, the “Treg cell in vitro generation / Treg cell formation” value in the assay with naïve CD4+ T cells [1] (Treg cell-inducing condition (anti-CD3, anti-CD28, TGFβ, IL-2)) is “promoted”. Besides, the results for the Foxp3 protein expression entry in the assay on naïve CD4+ T cells [1] and in the assay with naïve CD4+ T cells [1] (listed as Sphinganine) were “increase” and “further increased”, respectively. In the assay with naïve CD4+ T cells [2] (Th17 cell-differentiation condition: TGFβ 5 ng/ml, IL-6 20 ng/ml, anti-IFNy 10 μg/ml, FIG. 4B), the “IL-17 production / IL-17 protein expression” value was “reduced”. The “inflammatory Th17 cell formation” value in the assay with naïve CD4+ T cells [2] (TGFβ, IL-6, anti-IFNy) is “suppressed”.
